According to DBAASP:
≈ marks a conversion by molar mass, not a printed value.

Legend:
Assay in all cases: ≥ marks a high value that may be exact or a test limit, other limits are often not marked, values filed in µg/mL are converted to µM
Escherichia coli = tested on: Escherichia coli
[1] = tested on: Escherichia coli ATCC 25922
[2] = tested on: Pseudomonas aeruginosa ATCC 27853
[3] = tested on: Staphylococcus aureus ATCC 25923
[4] = tested on: Staphylococcus aureus ATCC 29213

MIC (Escherichia coli) [µM] | MIC [1] [µM] | MIC [2] [µM] | MIC [3] [µM] | MIC [4] [µM] | Structure (SMILES)
0.359 (≈ 0.699 µg/mL) |  |  |  |  | CC(C)C[C@H](NC(=O)[C@H](CCCN=C(N)N)NC(=O)CNC(=O)CNC(=O)[C@@H](N)CCCN=C(N)N)C(=O)N[C@H]1CSSC[C@@H](C(=O)N[C@H](C(=O)O)[C@@H](C)O)NC(=O)[C@H](C(C)C)NC(=O)[C@@H]2CSSC[C@H](NC(=O)[C@H](Cc3ccc(O)cc3)NC1=O)C(=O)N[C@@H](CCCN=C(N)N)C(=O)N[C@@H](CCCN=C(N)N)C(=O)N[C@@H](CCCN=C(N)N)C(=O)N[C@@H](Cc1ccccc1)C(=O)N2 [RGGRLCYCRRRFCVCT]
 | > 100 | > 100 |  |  | CC[C@H](C)[C@H](NC(=O)[C@H](Cc1ccc(O)cc1)NC(=O)[C@H](CCC(N)=O)NC(=O)[C@H](CC(C)C)NC(=O)[C@H](C)NC(=O)[C@H](CCCCN)NC(=O)[C@H](CCCCN)NC(=O)[C@H](CCSC)NC(=O)[C@H](CCCCN)NC(=O)[C@@H](N)CCCCN)C(=O)N[C@@H](CCCCN)C(=O)N[C@@H](CC(C)C)C(N)=O [KKMKKALQYIKL]
 | > 100 | > 100 | > 100 |  | CC(C)[C@H](NC(=O)[C@H](CC(=O)O)NC(=O)[C@H](CO)NC(=O)[C@H](CCCCN)NC(=O)CNC(=O)[C@H](CO)NC(=O)[C@H](CO)NC(=O)[C@H](Cc1cnc[nH]1)NC(=O)[C@@H](N)CCC(N)=O)C(=O)N[C@@H](CCCN=C(N)N)C(=O)N[C@@H](CCCN=C(N)N)C(=O)N[C@@H](Cc1c[nH]c2ccccc12)C(N)=O [QHSSGKSDVRRW]
 |  | > 128 |  |  | CC(C)C[C@H](NC(=O)[C@H](CC(C)C)NC(=O)[C@H](CCCN=C(N)N)NC(=O)[C@H](CC(C)C)NC(=O)[C@H](CC(C)C)NC(=O)[C@H](CCCN=C(N)N)NC(=O)[C@H](CCCN=C(N)N)NC(=O)[C@H](CC(C)C)NC(=O)[C@H](CC(C)C)NC(=O)[C@H](CCCN=C(N)N)NC(=O)[C@H](CC(C)C)NC(=O)[C@H](CC(C)C)NC(=O)[C@H](CCCN=C(N)N)NC(=O)[C@H](CC(C)C)NC(=O)[C@H](CCCN=C(N)N)NC(=O)[C@H](CC(C)C)NC(=O)[C@H](CCCN=C(N)N)NC(=O)[C@H](CCCN=C(N)N)NC(=O)[C@@H](N)CC(C)C)C(=O)O [LRRLRLRLLRLLRRLLRLL]
 | 28.7 (≈ 32 µg/mL) | 7.19 (≈ 8 µg/mL) |  | > 57.5 | CC[C@H](C)[C@H](NC(=O)[C@H](CCCCN)NC(=O)[C@H](CCCCN)NC(=O)[C@@H](N)CCC(N)=O)C(=O)N[C@@H](C)C(=O)N[C@H](C(=O)N[C@@H](CCCN=C(N)N)C(=O)N[C@@H](CC(C)C)C(=O)N[C@@H](CO)C(=O)N[C@@H](C)C(=O)O)C(C)C [QKKIAVRLSA]
 | 8.12 (≈ 9.99 µg/mL) | 6.09 (≈ 7.49 µg/mL) | 2.03 (≈ 2.5 µg/mL) |  | NC(=O)[C@H](CCCN=C(N)N)NC(=O)[C@H](Cc1c[nH]c2ccccc12)NC(=O)[C@H](Cc1c[nH]c2ccccc12)NC(=O)[C@H](CCCN=C(N)N)NC(=O)[C@H](Cc1c[nH]c2ccccc12)NC(=O)[C@H](Cc1c[nH]c2ccccc12)NC(=O)[C@@H](N)CCCN=C(N)N [RWWRWWR]
 | 10 (≈ 17 µg/mL) |  |  | 3.54 (≈ 6.02 µg/mL) | CC(=O)N[C@@H](CCCCN)C(=O)N[C@@H](CC(C)C)C(=O)N[C@@H](CC(C)C)C(=O)N[C@@H](CCCCN)C(=O)N[C@@H](CC(C)C)C(=O)N[C@@H](CC(C)C)C(=O)N[C@@H](CCCCN)C(=O)N1CCC[C@H]1C(=O)N[C@@H](CC(C)C)C(=O)N[C@@H](CC(C)C)C(=O)N[C@@H](CCCCN)C(=O)N[C@@H](CC(C)C)C(=O)N[C@@H](CC(C)C)C(=O)N[C@@H](CCCCN)C(N)=O [KLLKLLKPLLKLLK]
 |  |  |  | > 33.6 | CC[C@H](C)[C@H](NC(=O)CNC(=O)[C@H](CCCCN)NC(=O)[C@H](CCCCN)NC(=O)[C@H](CCCCN)NC(=O)[C@@H](N)CCCCN)C(=O)NCC(=O)N[C@@H](CCCCN)C(=O)N[C@@H](Cc1ccccc1)C(=O)N[C@@H](CC(C)C)C(=O)N[C@@H](Cc1cnc[nH]1)C(=O)N[C@@H](CO)C(=O)N[C@@H](C)C(=O)N[C@@H](CCCCN)C(=O)N[C@@H](CCCCN)C(=O)N[C@@H](Cc1ccccc1)C(=O)NCC(=O)N[C@@H](CCCCN)C(=O)N[C@@H](C)C(=O)N[C@@H](Cc1ccccc1)C(=O)N[C@H](C(=O)NCC(=O)N[C@@H](CCC(=O)O)C(=O)N[C@H](C(=O)N[C@@H](CCSC)C(=O)N[C@@H](CC(N)=O)C(=O)N[C@@H](CO)C(=O)O)[C@@H](C)CC)C(C)C [KKKKGIGKFLHSAKKFGKAFVGEIMNS]

Continued, molecule first:

Structure (SMILES) | MIC (Escherichia coli) [µM] | MIC [1] [µM] | MIC [2] [µM] | MIC [3] [µM] | MIC [4] [µM]
CC[C@H](C)[C@H](NC(=O)[C@H](Cc1c[nH]c2ccccc12)NC(=O)[C@H](CCCCN)NC(=O)[C@@H]1CCCN1C(=O)[C@H](CC(C)C)NC(=O)[C@H](CCCCN)NC(=O)CNC(=O)[C@@H](NC(=O)[C@@H](NC(=O)[C@H](CO)NC(=O)[C@@H](NC(=O)[C@@H](NC(=O)[C@H](CCCCN)NC(=O)[C@H](CCC(N)=O)NC(=O)[C@H](C)N)[C@@H](C)CC)[C@@H](C)CC)[C@@H](C)O)[C@@H](C)CC)C(=O)N[C@H](C(=O)N[C@@H](CCCCN)C(=O)N[C@H](C(=O)N[C@H](C(=O)N[C@@H](CC(N)=O)C(=O)N[C@@H](CCCCN)C(=O)N[C@@H](Cc1ccccc1)C(=O)N[C@H](C(=O)N[C@@H](CCCCN)C(=O)N[C@@H](CCCCN)C(=O)O)[C@@H](C)O)C(C)C)[C@@H](C)O)[C@@H](C)CC [AQKIISTIGKLPKWIIKTVNKFTKK] | 2.5 (≈ 7.21 µg/mL) |  |  |  | 
CC[C@H](C)[C@H](NC(=O)CN)C(=O)NCC(=O)N[C@@H](CCCCN)C(=O)N[C@@H](Cc1ccccc1)C(=O)N[C@@H](CC(C)C)C(=O)N[C@@H](Cc1cnc[nH]1)C(=O)N[C@@H](CCCCN)C(=O)N[C@H](C(=O)N[C@@H](CCCCN)C(=O)N[C@@H](CO)C(=O)N[C@@H](Cc1ccccc1)C(=O)NCC(=O)N[C@@H](CCCCN)C(=O)N[C@@H](CO)C(=O)N[C@@H](Cc1c[nH]c2ccccc12)C(=O)N[C@H](C(=O)NCC(=O)N[C@@H](CCC(=O)O)C(=O)N[C@H](C(=O)N[C@@H](CCSC)C(=O)N[C@@H](CC(N)=O)C(=O)N[C@@H](CO)C(N)=O)[C@@H](C)CC)[C@@H](C)CC)C(C)C [GIGKFLHKVKSFGKSWIGEIMNS] |  | 19 (≈ 48.7 µg/mL) | 19 (≈ 48.7 µg/mL) |  | 76 (≈ 195 µg/mL)
CC(C)C[C@H](NC(=O)[C@H](CCCCN)NC(=O)[C@H](CC(C)C)NC(=O)[C@H](CC(C)C)NC(=O)[C@H](CCCCN)NC(=O)[C@H](CCCCN)NC(=O)[C@H](CC(C)C)NC(=O)[C@H](CC(C)C)NC(=O)[C@H](CCCCN)NC(=O)[C@H](CC(C)C)NC(=O)[C@H](CC(C)C)NC(=O)[C@H](CCCCN)NC(=O)[C@H](CCCCN)NC(=O)[C@H](C)N)C(=O)N[C@@H](C)C(=O)NCC(=O)O [AKKLLKLLKKLLKLAG] |  | 5 (≈ 8.89 µg/mL) |  |  | 10 (≈ 17.8 µg/mL)
CSCC[C@H](NC(=O)[C@H](CCCN=C(N)N)NC(=O)[C@H](Cc1c[nH]c2ccccc12)NC(=O)[C@H](C)NC(=O)[C@H](Cc1c[nH]c2ccccc12)NC(=O)[C@H](CCCN=C(N)N)NC(=O)[C@H](CCCN=C(N)N)NC(=O)[C@H](C)NC(=O)[C@H](CCCCN)NC(=O)[C@@H](N)Cc1ccccc1)C(=O)N[C@@H](CCCCN)C(=O)O [FKARRWAWRMK] |  | 32.6 (≈ 50 µg/mL) | 130 (≈ 200 µg/mL) | 32.6 (≈ 50 µg/mL) | 
CC[C@H](C)[C@H](NC(=O)[C@H](CCCN=C(N)N)NC(=O)[C@H](CCC(N)=O)NC(=O)[C@@H](NC(=O)[C@H](Cc1cnc[nH]1)NC(=O)[C@H](CCCN=C(N)N)NC(=O)[C@H](CCCCN)NC(=O)[C@@H](N)Cc1ccccc1)C(C)C)C(=O)N[C@@H](CCCCN)C(=O)N[C@@H](CC(=O)O)C(=O)N[C@@H](Cc1ccccc1)C(=O)N[C@@H](CC(C)C)C(=O)N[C@@H](CCCN=C(N)N)C(=O)O [FKRHVQRIKDFLR] |  | 10 (≈ 17.4 µg/mL) |  |  | > 40
CC[C@H](C)[C@H](NC(=O)CNC(=O)[C@H](CC(C)C)NC(=O)[C@@H](NC(=O)[C@@H]1CCCN1C(=O)[C@H](CC(N)=O)NC(=O)[C@H](CC(C)C)NC(=O)[C@H](CC(C)C)NC(=O)CNC(=O)[C@H](CC(N)=O)NC(=O)[C@H](CC(C)C)NC(=O)[C@H](CC(C)C)NC(=O)[C@@H](N)CC(=O)O)C(C)C)C(=O)N[C@@H](C)C(=O)N[C@@H](CC(N)=O)C(=O)NCC(=O)N[C@@H](CC(C)C)C(=O)N[C@H](C(=O)NCC(=O)NCC(=O)N[C@@H](CC(C)C)C(=O)N[C@H](C(=O)N[C@@H](CCCCN)C(=O)N[C@@H](CCCCN)C(N)=O)C(C)C)[C@@H](C)O [DLLNGLLNPVLGIANGLTGGLVKK] |  | > 293 |  |  | > 293
NCC(=O)N[C@@H](CCCN=C(N)N)C(=O)N[C@@H](CCCN=C(N)N)C(=O)N1CCC[C@H]1C(=O)N[C@@H](CCCN=C(N)N)C(=O)N1CCC[C@H]1C(=O)N[C@@H](CCCN=C(N)N)C(=O)N1CCC[C@H]1C(=O)N[C@@H](CCCN=C(N)N)C(=O)N1CCC[C@H]1C(=O)N[C@@H](Cc1c[nH]c2ccccc12)C(=O)N[C@@H](Cc1c[nH]c2ccccc12)C(=O)N[C@@H](Cc1c[nH]c2ccccc12)C(=O)N[C@@H](Cc1c[nH]c2ccccc12)C(=O)N[C@@H](Cc1c[nH]c2ccccc12)C(=O)O [GRRPRPRPRPWWWWW] |  | 5 (≈ 10.9 µg/mL) | 20 (≈ 43.5 µg/mL) |  | 20 (≈ 43.5 µg/mL)
CC[C@H](C)[C@H](NC(=O)[C@H](CCCN=C(N)N)NC(=O)[C@H](CCC(N)=O)NC(=O)[C@@H](NC(=O)[C@@H](NC(=O)[C@H](CCCN=C(N)N)NC(=O)[C@H](CCCCN)NC(=O)[C@@H](N)Cc1ccccc1)[C@@H](C)CC)C(C)C)C(=O)N[C@@H](CCCCN)C(=O)N[C@@H](CC(=O)O)C(=O)N[C@@H](Cc1ccccc1)C(=O)N[C@@H](C)C(=O)N[C@@H](CCCN=C(N)N)C(=O)O [FKRIVQRIKDFAR] |  | 10 (≈ 16.8 µg/mL) |  |  | > 40
CC[C@H](C)[C@H](NC(=O)[C@@H](N)Cc1ccc(O)cc1)C(=O)N[C@@H](CCCCN)C(=O)N[C@@H](CC(C)C)C(=O)N[C@@H](CC(C)C)C(=O)N[C@@H](CCCCN)C(=O)N[C@@H](CCC(=O)O)C(N)=O [YIKLLKE] |  | > 100 | > 100 |  | 
